Measurements reported in ChEMBL document CHEMBL1152297, “Quantitative three dimensional structure linear interaction energy model of 5'-O-[N-(salicyl)sulfamoyl]adenosine and the aryl acid adenylating enzyme MbtA” (J Med Chem, 2008).

molecular target: T1, Salicyl-AMP ligase / salicyl-S-ArCP synthetase (Mycobacterium tuberculosis, UniProt P71716); experiment: Inhibition of Mycobacterium tuberculosis BAG RV143 MbtA expressed in Escherichia coli BL21 (DE3) assessed as ATP-[32P]PPi exchange by liquid scintillation counting; conditions: read-out: Ki(app)
T1 sequence (P71716 whole entry): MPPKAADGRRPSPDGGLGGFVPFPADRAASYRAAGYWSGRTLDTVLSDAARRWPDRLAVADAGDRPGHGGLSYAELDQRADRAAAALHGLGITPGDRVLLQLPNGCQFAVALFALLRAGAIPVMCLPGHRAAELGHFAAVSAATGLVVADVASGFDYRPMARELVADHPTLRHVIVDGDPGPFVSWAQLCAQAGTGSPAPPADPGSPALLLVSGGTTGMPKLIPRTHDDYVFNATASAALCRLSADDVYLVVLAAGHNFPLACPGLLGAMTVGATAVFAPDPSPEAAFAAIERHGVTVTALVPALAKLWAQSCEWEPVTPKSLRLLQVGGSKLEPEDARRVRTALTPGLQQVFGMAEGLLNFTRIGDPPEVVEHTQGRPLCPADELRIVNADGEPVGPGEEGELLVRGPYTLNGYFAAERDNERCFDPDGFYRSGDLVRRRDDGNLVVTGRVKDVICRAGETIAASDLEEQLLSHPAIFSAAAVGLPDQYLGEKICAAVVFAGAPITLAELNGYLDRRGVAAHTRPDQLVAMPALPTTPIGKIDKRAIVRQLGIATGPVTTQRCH

| SMILES | Ki [nM] |
| --- | --- |
| Nc1ncnc2c1ncn2[C@H]1C[C@H](O)[C@@H](COS(=O)(=O)NC(=O)c2ccccc2O)O1 | 3.5 |
| Nc1ncnc2c1ncn2[C@@H]1O[C@H](CNS(=O)(=O)NC(=O)c2ccccc2O)[C@@H](O)[C@H]1O | 3.8 |
| Nc1ncnc2c1ncn2[C@H]1CC[C@@H](COS(=O)(=O)NC(=O)c2ccccc2O)C1 | 61 |
| Nc1ncnc2c1ncn2[C@@H]1O[C@H](CNS(=O)(=O)/C=C/c2ccccc2O)[C@@H](O)[C@H]1O | 143000 |
| Nc1ncnc2c1ncn2[C@H]1C=C[C@@H](COS(=O)(=O)NC(=O)c2ccccc2O)C1 | 830 |
| Nc1ncnc2c1ncn2[C@@H]1O[C@H](COS(=O)(=O)CC(=O)c2ccccc2O)[C@@H](O)[C@H]1O | 3300 |
| Nc1ncnc2c1ncn2[C@@H]1O[C@H](COS(=O)(=O)NC(=O)c2ccccc2O)C[C@H]1O | 3.2 |
| Nc1ncnc2c1ncn2[C@@H]1C[C@H](COS(=O)(=O)NC(=O)c2ccccc2O)[C@@H](O)[C@H]1O | 2.3 |
| Nc1ncnc2c1ncn2[C@@H]1O[C@H](COS(=O)(=O)NCc2ccccc2O)[C@@H](O)[C@H]1O | 410 |
